From US20170247336A1 (MERCK SHARP & DOHME CORP., priority 2014, published 2017)
pIC50: −log10 of the molar value.

What was measured:
human HIF-PHD2 = target: T1, human HIF-PHD2 (Homo sapiens, UniProt Q9GZT9); test: HIF-PHD2 inhibition: hydroxylation of HIF-1α peptide, time resolved fluorescence; format: biochemical; settings: FLAG-tagged full length PHD2; 0.2 μM 2-oxoglutarate, 0.5 μM HIF-1α peptide
T1 construct: FLAG-tagged full length PHD2 expressed in and purified from baculovirus-infected Sf9 cells; FLAG; made in house; host or cells: baculovirus-infected Sf9 cells
T1 sequence (Q9GZT9 whole entry): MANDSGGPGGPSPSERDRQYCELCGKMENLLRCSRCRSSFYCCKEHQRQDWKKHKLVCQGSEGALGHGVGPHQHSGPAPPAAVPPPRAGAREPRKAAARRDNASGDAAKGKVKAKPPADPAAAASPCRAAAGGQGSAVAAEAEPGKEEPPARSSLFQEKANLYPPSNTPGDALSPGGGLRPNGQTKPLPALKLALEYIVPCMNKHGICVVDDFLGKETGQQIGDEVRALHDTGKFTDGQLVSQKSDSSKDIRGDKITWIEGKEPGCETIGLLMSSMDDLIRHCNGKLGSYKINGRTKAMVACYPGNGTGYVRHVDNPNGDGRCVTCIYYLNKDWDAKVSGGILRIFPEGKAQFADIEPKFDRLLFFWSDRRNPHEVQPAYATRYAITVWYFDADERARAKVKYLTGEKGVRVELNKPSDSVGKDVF
Protocol: To each well of a 384-well plate, 1 μL of test compounds in DMSO (final concentration ranging from 0.3 nM to 10 μM) were added into 20 μl of assay buffer (50 mM Tris pH 7.4/0.01% Tween-20/0.1 mg/ml bovine serum albumin/10 μM ferrous sulfate/1 mM sodium ascorbate/20 μg/ml catalase) containing 0.15 μg/ml FLAG-tagged full length PHD2 expressed in and purified from baculovirus-infected Sf9 cells. After a 5 min preincubation at room temperature, the enzymatic reactions were initiated by the addition of 4 μL of substrates {final concentrations of 0.2 μM 2-oxoglutarate and 0.5 μM HIF-1α peptide biotinyl-DLDLEMLAPYIPMDDDFQL (SEQ ID NO: 1)}. After incubation for 45 minutes at room temperature, the reactions were terminated by the addition of a 25 μL quench/detection mix to a final concentration of 1 mM ortho-phenanthroline, 0.1 mM EDTA, 0.5 nM anti-(His)6 LANCE reagent (Perkin-Elmer Life Sciences), 100 nM AF647-labeled streptavidin (Invitrogen), and 2 μg/ml (His)6-VHL complex {S. Tan Protein Expr. Purif. 21, 224-234 (2001)} and the signals were developed for 30 minutes at room temperature. The ratio of time resolved fluorescence signals at 665 and 620 nm was determined, and percent inhibition was calculated relative to the high control samples (DMSO treated) run in parallel, after background subtraction.

[1] = Pharmacokinetics (half life) in rat after intravenous administration; format: in vivo; settings: plasma, male Wistar Han rats; for half-life: male, Wistar Han, rat, iv, 0.5 mg/kg, read-out: Half Life (t1/2) (converted)
Protocol: The half life of compounds described in this application were evaluated in rat. Shown in Table 9 are T½ of selected examples in rat (Wister Han) for selected compounds of the present invention. In addition Table 9 includes half life data for compounds disclosed in International Patent Application published as WO 2013/043621.
The pharmacokinetics of the compounds disclosed in Table 9 were studied in male Wistar Han rats after intravenous (IV) administration. For IV dosing at 0.5 mg/kg in rat, compounds were formulated as a solution in DMSO/PEG400/water (20/60/20, by vol.). Plasma samples obtained from dosed animals were prepared for analysis by means of a single step protein precipitation technique by adding 200 μL of acetonitrile to 50 μL aliquots of individual subject samples. Samples were mixed by vortex for homogeneity and then subjected to centrifugation at 3500 rpm for 10 min. The supernatant (200 μL) was collected and injected into the LC-MS/MS for analysis. Pharmacokinetic parameters were calculated using established non-compartmental methods.

Row | pIC50 (human HIF-PHD2) | half-life [1] [h] | Half Life (t1/2) ([1]; IV 0.5 mg/kg) [h] | Structure (SMILES)
1 | 8.60 | 0.69 | – | CC(NC(=O)c1cnc(C(=O)NCCC(=O)O)nc1O)c1ccc(-c2ccc(F)cc2)cc1 (racemic) [Example 44, 3-(5-((1-(4′-fluoro-[1,1′-biphenyl]-4-yl)ethyl)carbamoyl)-4-hydroxypyrimidine-2-carboxamido)propanoic acid]
2 | 8.57 | 6.76 | – | COc1ccc([C@@H](NC(=O)c2cnc(C(=O)NCCC(=O)O)nc2O)c2ccccc2)cc1 [Example 36]
3 | 8.62 | 0.69 | – | COc1ccc([C@H](NC(=O)c2cnc(C(=O)NCCC(=O)O)nc2O)c2ccccc2)cc1 [Example 37]
4 | 9.05 | – | – | COc1ccc(C(NC(=O)c2cnc(C(=O)NCCC(=O)O)nc2O)c2ccccc2)cc1 (stereo not shown) [Example 38]
5 | 8.77 | 1.59 | – | COc1ccc(C(NC(=O)c2cnc(C(=O)NCCC(=O)O)nc2O)c2ccc3c(c2)CCO3)cc1 (stereo not shown) [Example 39, 3-(5-(((2,3-dihydrobenzofuran-5-yl)(4-methoxyphenyl)methyl)carbamoyl)-4-hydroxypyrimidine-2-carboxamido)propanoic acid]
6 | 9.05 | – | – | O=C(O)CCNC(=O)c1ncc(C(=O)NC(c2ccc(Cl)cc2)c2ccc(C(F)(F)F)cc2)c(O)n1 (stereo not shown) [Example 40, 3-(5-(((4-chlorophenyl)(4-(trifluoromethyl)phenyl)methyl)carbamoyl)-4-hydroxypyrimidine-2-carboxamido)propanoic acid]
7 | 9.10 | – | – | COc1ccc(C(NC(=O)c2cnc(C(=O)NCCC(=O)O)nc2O)c2ccc(OC)nc2)cn1 [Example 41, 3-(5-((bis(6-methoxypyridin-3-yl)methyl)carbamoyl)-4-hydroxypyrimidine-2-carboxamido)propanoic acid]
8 | 9.30 | – | – | O=C(O)CCNC(=O)c1ncc(C(=O)NC(c2ccc(Cl)cc2)c2ccc(Cl)cc2)c(O)n1 [Example 42, 3-(5-((bis(4-chlorophenyl)methyl)carbamoyl)-4-hydroxypyrimidine-2-carboxamido)propanoic acid]
9 | 9.40 | 0.62 | – | O=C(O)CCNC(=O)c1ncc(C(=O)NC2(c3ccc(Br)cc3)CC2)c(O)n1 [Example 45, 3-(5-((1-(4-bromophenyl)cyclopropyl)carbamoyl)-4-hydroxypyrimidine-2-carboxamido)propanoic acid]
10 | 9.00 | – | – | CC(NC(=O)c1cnc(C(=O)NCCC(=O)O)nc1O)c1ccc(Oc2ccccc2)cc1 (stereo not shown) [Example 46, 3-(4-hydroxy-5-((1-(4-phenoxyphenyl)ethyl)carbamoyl)pyrimidine-2-carboxamido)propanoic acid]
11 | 8.96 | – | – | O=C(O)CCNC(=O)c1ncc(C(=O)NC(c2ccc(Br)cc2)C(F)(F)F)c(O)n1 (stereo not shown) [Example 47, 3-(5-((1-(4-bromophenyl)-2,2,2-trifluoroethyl)carbamoyl)-4-hydroxypyrimidine-2-carboxamido)propanoic acid]
12 | 9.15 | – | – | COc1ccc(C(NC(=O)c2cnc(C(=O)NCCC(=O)O)nc2O)c2ccc(OC)cc2)cc1 [Example 48, 3-(5-((bis(4-methoxyphenyl)methyl)carbamoyl)-4-hydroxypyrimidine-2-carboxamido)propanoic acid]
13 | 9.00 | – | – | O=C(O)CCNC(=O)c1ncc(C(=O)NC(c2ccccc2)c2ccc(C(F)(F)F)cc2)c(O)n1 (stereo not shown) [Example 49, 3-(4-hydroxy-5-((phenyl(4-(trifluoromethyl)phenyl)methyl)carbamoyl)pyrimidine-2-carboxamido)propanoic acid]

Further lines, the compound ahead of its results:

Row | Structure (SMILES) | pIC50 (human HIF-PHD2) | half-life [1] [h] | Half Life (t1/2) ([1]; IV 0.5 mg/kg) [h]
14 | C[C@@H](CNC(=O)c1ncc(C(=O)NC(c2ccccc2)c2ccccc2)c(O)n1)C(=O)O (single isomer, unassigned) [Example 1] | 8.64 | 1.9 | –
15 | C[C@H](CNC(=O)c1ncc(C(=O)NC(c2ccccc2)c2ccccc2)c(O)n1)C(=O)O (single isomer, unassigned) [Example 2] | 8.77 | 1.45 | –
16 | COc1ccc(C(NC(=O)c2cnc(C(=O)NCC(C)C(=O)O)nc2O)c2ccc3cc(OC)ccc3n2)cc1 (single isomer, unassigned) [Example 14, (R) or (S)-3-(4-hydroxy-5-(((4-methoxyphenyl)(6-methoxyquinolin-2-yl)methyl)carbamoyl)pyrimidine-2-carboxamido)-2-methylpropanoic acid] | 7.80 | 1.36 | –
17 | COc1ccc(C(NC(=O)c2cnc(C(=O)NCC(C)C(=O)O)nc2O)c2ccc(OC)cc2)cc1 (single isomer, unassigned) [Example 15, (R) or (S)-3-(5-((bis(4-methoxyphenyl)methy)carbamoyl)-4-hydroxypyrimidine-2-carboxamido)-2-methylpropanoic acid] | 8.00 | 0.99 | –
18 | CC(CNC(=O)c1ncc(C(=O)NC2(c3ccc(Br)cc3)CC2)c(O)n1)C(=O)O (single isomer, unassigned) [Example 16, (R) or (S)-3-(5-((1-(4-bromophenyl)cyclopropyl)carbamoyl)-4-hydroxypyrimidine-2-carboxamido)-2-methylpropanoic acid] | 8.89 | 0.88 | –
19 | CC(CNC(=O)c1ncc(C(=O)NC2(c3ccc(Br)cc3)CC2)c(O)n1)C(=O)O (single isomer, unassigned) [Example 17, (R) or (S)-3-(5-((1-(4-bromophenyl)cyclopropyl)carbamoyl)-4-hydroxypyrimidine-2-carboxamido)-2-methylpropanoic acid] | 9.10 | – | 1.36
20 | O=C(O)CCNC(=O)c1ncc(C(=O)NC(c2ccccc2)c2ccccc2)c(O)n1 [Example 2-11 from WO2013/040789, reference compound] | – | 0.28 | –
21 | O=C(O)CNC(=O)c1ncc(C(=O)NC(c2ccccc2)c2ccccc2)c(O)n1 [Example 2-12 from WO2013/040789, reference compound] | – | 0.56 | –
22 | O=C(O)c1cc(-c2ncc(C(=O)NC(c3ccccc3)c3ccccc3)c(O)n2)no1 [Example 2-16 from WO2013/040789, reference compound] | – | 0.3 | –
23 | O=C(NCC1(C(=O)O)CC1)c1ncc(C(=O)NC(c2ccccc2)c2ccccc2)c(O)n1 [Example 4, 1-((5-(benzhydrylcarbamoyl)-4-hydroxypyrimidine-2-carboxamido)methyl)cyclopropanecarboxylic acid] | 8.07 | 4.78 | –
24 | O=C(N[C@@H](Cc1c[nH]c2ccccc12)C(=O)O)c1ncc(C(=O)NC(c2ccccc2)c2ccccc2)c(O)n1 [Example 6, (2S)-2-(5-(benzhydrylcarbamoyl)-4-hydroxypyrimidine-2-carboxamido)-3-(3aH-indo1-3-yl)propanoic acid] | 8.05 | 1.68 | –
25 | O=C(NC[C@H](O)C(=O)O)c1ncc(C(=O)NC(c2ccccc2)c2ccccc2)c(O)n1 [Example 7, (S)-3-(5-(benzhydrylcarbamoyl)-4-hydroxypyrimidine-2-carboxamido)-2-hydroxypropanoic acid] | 8.85 | 1.02 | –
26 | CC(C)(NC(=O)c1cnc(C(=O)NC[C@@H](O)C(=O)O)nc1O)c1ccc(C(F)(F)F)cc1 [Example 11, (R)-2-hydroxy-3-(4-hydroxy-5-((2-(4-(trifluoromethyl)phenyl)propan-2-yl)carbamoyl)pyrimidine-2-carboxamido)propanoic acid] | 8.82 | – | –
27 | COc1ccc([C@H](NC(=O)c2cnc(C(=O)NC[C@@H](O)C(=O)O)nc2O)c2ccccc2)cc1 [Example 12, (R)-2-hydroxy-3-(4-hydroxy-5-(((R)-(4-methoxyphenyl)(phenyl)methyl)carbamoyl)pyrimidine-2-carboxamido)propanoic acid] | 8.06 | – | –
28 | CC(CNC(=O)c1ncc(C(=O)NC(c2ccc(Cl)cc2)c2ccc(Cl)cc2)c(O)n1)C(=O)O (stereo not shown) [Example 13] | 8.31 | – | –
29 | COc1ccc([C@@H](NC(=O)c2cnc(C(=O)NCCC(=O)O)nc2O)c2ccc(Cl)cc2)cc1 [Example 35, (R)-3-(5-(((4-chlorophenyl)(4-methoxyphenyl)methyl)carbamoyl)-4-hydroxypyrimidine-2-carboxamido)propanoic acid] | 9.05 | – | –
